Measured values published in ChEMBL document CHEMBL1201862, “PubChem BioAssay data set” (2004).
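How tested: cells in 96-well plates exposed to compound for 48 hours at five concentrations. The concentration for 50% growth inhibition is given as GI50.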 Active and inactive are the calls of the source. Cut-off read from the data, not from the text of the source: active = GI50 up to about 1.1 µM and inactive = higher.

What was measured:
Experiment in all cases: NCI anticancer screen, dose series, 48 h
[1] = tested on: DLD-1
[2] = tested on: DMS-114
[3] = tested on: DMS-273
[4] = tested on: HOP-18
[5] = tested on: KM-20L2
[6] = tested on: M19-MEL
[7] = tested on: RXF 631
[8] = tested on: XF498
[9] = tested on: SNB-78

Measured: GI50

CCCN(CCCC(NC(C)=O)C(=O)NCc1ccccc1)C(=O)NCCCl (configuration not stated)
inactive: [1] > 100 µM | [2] > 100 µM | [3] > 100 µM | [4] > 100 µM | [5] > 100 µM | [6] > 100 µM | [7] > 100 µM | [8] > 100 µM

COc1c(O)c(O)cc2c1-c1ccc(OC)c(=O)cc1C(NC(C)=O)CC2 (configuration not stated)
inactive: [1] 4.71 µM | [2] 2.49 µM | [3] 3.27 µM | [4] > 100 µM | [5] 2.7 µM | [6] 6.12 µM | [7] 14.9 µM | [9] 3.12 µM | [8] 5.38 µM

Cc1ccccc1/N=N/C(C(=O)c1ccccc1)C(=O)c1ccccc1
inactive: [1] 30.8 µM | [2] 19.4 µM | [3] 18.3 µM | [5] 27.7 µM | [6] 17.5 µM | [7] 34.9 µM | [8] 19.5 µM

CCCNC1=C(C(=O)OCC)C(=O)CO1
inactive: [1] > 100 µM | [2] > 100 µM | [3] > 100 µM | [5] > 100 µM | [6] > 100 µM | [7] > 100 µM | [9] > 100 µM | [8] > 100 µM
